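Growth conditions: 96-well plates. Treatment: test compound, 48 hours, 5 concentrations. Analysis: linear interpolation between bracketing concentrations; unreached endpoints set to highest concentration. GI50: concentration for 50% inhibition of growth.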 Active and inactive are the calls of the source. Cut-off read from the data, not from the text of the source: active = GI50 up to about 1.1 µM and inactive = higher.
Key:
Assay in all cases: DTP human tumour cell line panel, 48 h
OVCAR-4 = test system: OVCAR-4
OVCAR-3 = test system: OVCAR-3
MDA-MB-231 = test system: MDA-MB-231
NCI-H522 = test system: NCI-H522
SNB-75 = test system: SNB-75
SN12C = test system: SN12C
OVCAR-5 = test system: OVCAR-5
HT-29 = test system: HT-29
NCI-H460 = test system: NCI-H460
BT-549 = test system: BT-549
SK-MEL-28 = test system: SK-MEL-28
CAKI-1 = test system: CAKI-1
RXF 393 = test system: RXF 393
OVCAR-8 = test system: OVCAR-8
IGROV-1 = test system: IGROV-1
LOX IMVI = test system: LOX IMVI
A549 = test system: A549
SF-539 = test system: SF-539
PC-3 = test system: PC-3
CCRF-CEM = test system: CCRF-CEM

| Compound | GI50 (OVCAR-4) | GI50 (OVCAR-3) | GI50 (MDA-MB-231) | GI50 (NCI-H522) | GI50 (SNB-75) | GI50 (SN12C) | GI50 (OVCAR-5) | GI50 (HT-29) | GI50 (NCI-H460) | GI50 (BT-549) | GI50 (SK-MEL-28) | GI50 (CAKI-1) | GI50 (RXF 393) | GI50 (OVCAR-8) | GI50 (IGROV-1) | GI50 (LOX IMVI) | GI50 (A549) | GI50 (SF-539) | GI50 (PC-3) | GI50 (CCRF-CEM) |
| --- | --- | --- | --- | --- | --- | --- | --- | --- | --- | --- | --- | --- | --- | --- | --- | --- | --- | --- | --- | --- |
| O=C(O)C(Br)C(Br)c1ccccc1[N+](=O)[O-] (stereo not drawn) | > 100 µM (inactive) | 46.9 µM (inactive) | > 100 µM (inactive) | 16.3 µM (inactive) | > 100 µM (inactive) | > 100 µM (inactive) | > 100 µM (inactive) | > 100 µM (inactive) | > 100 µM (inactive) | > 100 µM (inactive) | > 100 µM (inactive) | > 100 µM (inactive) | > 100 µM (inactive) | > 100 µM (inactive) | > 100 µM (inactive) | > 100 µM (inactive) | > 100 µM (inactive) | > 100 µM (inactive) | > 100 µM (inactive) |  |
| c1ccc2c(NCCCCCCCCNc3c4ccccc4nc4ccccc34)c3ccccc3nc2c1 | 0.887 µM (active) | 0.37 µM (active) | 0.0482 µM (active) | < 0.0247 µM (active) | 1.19 µM (inactive) | 0.356 µM (active) | 0.23 µM (active) | < 0.0281 µM (active) | 0.0428 µM (active) | 1.16 µM (inactive) |  | 0.546 µM (active) | 0.0782 µM (active) | 0.27 µM (active) | 0.0927 µM (active) | 0.181 µM (active) | 0.0948 µM (active) | 0.233 µM (active) | 0.0548 µM (active) | < 0.0278 µM (active) |
| COc1cc(S(=O)(=O)Nc2ccc(-c3csc(N)n3)cc2)ccc1Cl | 14.1 µM (inactive) | 14.9 µM (inactive) | 16.9 µM (inactive) | 17.9 µM (inactive) | 21.4 µM (inactive) | 18.3 µM (inactive) | 23.3 µM (inactive) | 20.7 µM (inactive) |  | 22.3 µM (inactive) | 21.3 µM (inactive) | 20.2 µM (inactive) | 12.2 µM (inactive) | 22.3 µM (inactive) |  | 18.7 µM (inactive) | 18.4 µM (inactive) | 47.6 µM (inactive) | 15.3 µM (inactive) | 15.5 µM (inactive) |
| N#C/C(=C\Nc1ccccn1)C(=O)c1ccco1 | > 100 µM (inactive) | > 100 µM (inactive) | > 100 µM (inactive) | > 100 µM (inactive) | > 100 µM (inactive) | > 100 µM (inactive) | > 100 µM (inactive) | > 100 µM (inactive) | > 100 µM (inactive) | > 100 µM (inactive) | > 100 µM (inactive) | > 100 µM (inactive) | > 100 µM (inactive) | > 100 µM (inactive) | > 100 µM (inactive) | > 100 µM (inactive) | > 100 µM (inactive) | > 100 µM (inactive) | > 100 µM (inactive) |  |
| COc1ccc(C2C3COc4ccccc4C3=NN2c2ccccc2)cc1 (stereo not drawn) | > 100 µM (inactive) | > 100 µM (inactive) | > 100 µM (inactive) | > 100 µM (inactive) | > 100 µM (inactive) |  | > 100 µM (inactive) | 87.1 µM (inactive) | 94.4 µM (inactive) | > 100 µM (inactive) |  | > 100 µM (inactive) | > 100 µM (inactive) | > 100 µM (inactive) | > 100 µM (inactive) | > 100 µM (inactive) | > 100 µM (inactive) | > 100 µM (inactive) | 57.7 µM (inactive) | > 100 µM (inactive) |
| S=c1nc(Nc2ccccc2)c2c3c(sc2[nH]1)CCCC3 | > 100 µM (inactive) | > 100 µM (inactive) | > 100 µM (inactive) | 71.4 µM (inactive) | > 100 µM (inactive) | 56.4 µM (inactive) | > 100 µM (inactive) | > 100 µM (inactive) | > 100 µM (inactive) | > 100 µM (inactive) | > 100 µM (inactive) | > 100 µM (inactive) | > 100 µM (inactive) | > 100 µM (inactive) | > 100 µM (inactive) | > 100 µM (inactive) |  |  | > 100 µM (inactive) |  |
| COC1CC(N)(c2ccccc2)C(O)C(C)O1 (stereo not drawn) | > 100 µM (inactive) | > 100 µM (inactive) | > 100 µM (inactive) | > 100 µM (inactive) | > 100 µM (inactive) | > 100 µM (inactive) | > 100 µM (inactive) |  | > 100 µM (inactive) | > 100 µM (inactive) | > 100 µM (inactive) | > 100 µM (inactive) | > 100 µM (inactive) | > 100 µM (inactive) | > 100 µM (inactive) | > 100 µM (inactive) | > 100 µM (inactive) | > 100 µM (inactive) | > 100 µM (inactive) | > 100 µM (inactive) |
| C/C(CC(O)(C(F)(F)Cl)C(F)(F)Cl)=N\Nc1ccccc1 | 63.7 µM (inactive) | 19.1 µM (inactive) | 47.6 µM (inactive) | 28.5 µM (inactive) | 28.9 µM (inactive) |  | > 100 µM (inactive) | 42.9 µM (inactive) | 29.7 µM (inactive) | 33.6 µM (inactive) | 47.2 µM (inactive) | 22.2 µM (inactive) | 19.2 µM (inactive) | 36.7 µM (inactive) | 36.3 µM (inactive) | 27.5 µM (inactive) | 37.2 µM (inactive) | 32.3 µM (inactive) | 22.2 µM (inactive) | 29 µM (inactive) |
